Results reported in patent US9073855B2, “BCL-2 selective apoptosis-inducing agents for the treatment of cancer and immune diseases” (AbbVie Inc., priority 2008, dated 2015).

Tests used:
GST-Bcl-2 = GST-Bcl-2 (Homo sapiens, UniProt P10415); assay: TR-FRET binding assay, GST-Bcl-2 with F-Bak peptide probe; details: for Ki: TR-FRET Binding Affinity, GST-Bcl-2, F-Bak peptide probe; for Binding selectivity ratio (Bcl-XL Ki/Bcl-2 Ki): ratio of TR-FRET Ki values, Bcl-XL over Bcl-2
Method in brief: (§1)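 Displacement of a fluorescein-labelled Bak peptide from the GST-tagged protein was followed by time-resolved FRET with a terbium anti-GST donor after 3 h incubation at room temperature. Inhibition constants were calculated with Wang's equation.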

GST-Bcl-XL = GST-Bcl-XL (Homo sapiens, UniProt Q07817); assay: TR-FRET binding assay, GST-Bcl-XL with F-Bak peptide probe; details: TR-FRET Binding Affinity, GST-Bcl-XL, F-Bak peptide probe
Method in brief: as §1

FL5.12/Bcl-2 cells = assay: FL5.12/Bcl-2 cell viability assay under IL-3 withdrawal (CellTitre Glo); assay type: cell-based, murine; details: Mus musculus, IL-3 withdrawn 48 hrs, then 24 hrs with compound
Method in brief: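 Bcl-2-overexpressing murine FL5.12 transfectants underwent IL-3 removal for 48 hrs before a 24 hr compound treatment. Cell viability was quantified with CellTitre Glo.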

Sequence of GST-Bcl-XL (Q07817 whole entry): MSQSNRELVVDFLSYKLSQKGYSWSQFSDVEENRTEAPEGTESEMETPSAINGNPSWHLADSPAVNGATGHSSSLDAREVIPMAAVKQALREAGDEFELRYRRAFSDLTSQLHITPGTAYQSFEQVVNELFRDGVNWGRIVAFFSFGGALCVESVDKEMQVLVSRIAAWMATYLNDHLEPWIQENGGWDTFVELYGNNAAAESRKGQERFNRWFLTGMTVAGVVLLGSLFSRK
Sequence of GST-Bcl-2 (P10415 whole entry): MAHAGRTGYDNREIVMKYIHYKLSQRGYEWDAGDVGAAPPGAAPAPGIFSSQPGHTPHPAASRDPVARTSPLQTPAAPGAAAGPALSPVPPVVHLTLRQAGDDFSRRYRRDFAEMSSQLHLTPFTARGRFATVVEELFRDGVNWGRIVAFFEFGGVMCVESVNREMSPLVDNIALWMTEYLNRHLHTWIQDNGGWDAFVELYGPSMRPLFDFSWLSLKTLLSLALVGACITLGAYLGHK

Structure (SMILES)	Ki (GST-Bcl-2) [nM]	Ki (GST-Bcl-XL) [nM]	EC50 (FL5.12/Bcl-2 cells) [nM]	Binding selectivity ratio (Bcl-XL Ki/Bcl-2 Ki) (GST-Bcl-2)
CC1(C)CCC(CN2CCN(c3ccc(C(=O)NS(=O)(=O)c4ccc(NCCCn5ccnc5)c([N+](=O)[O-])c4)c(Oc4ccc5[nH]ccc5c4)c3)CC2)=C(c2ccc(Cl)cc2)C1 [Example 377, 4-(4-{[2-(4-chlorophenyl)-4,4-dimethylcyclohex-1-en-1-yl]methyl}piperazin-1-yl)-N-[(4-{[3-(1H-imidazol-1-yl)propyl]amino}-3-nitrophenyl)sulfonyl]-2-(1H-indol-5-yloxy)benzamide]	0.14	325	85.7	
C[C@H](Nc1ccc(S(=O)(=O)NC(=O)c2ccc(N3CCN(CC4=C(c5ccc(Cl)cc5)CC(C)(C)CC4)CC3)cc2Oc2ccc3[nH]ccc3c2)cc1[N+](=O)[O-])c1ccccc1 [Example 378, 4-(4-{[2-(4-chlorophenyl)-4,4-dimethylcyclohex-1-en-1-yl]methyl}piperazin-1-yl)-2-(1H-indol-5-yloxy)-N-[(3-nitro-4-{[(1S)-1-phenylethyl]amino}phenyl)sulfonyl]benzamide]	63	> 660	> 500	
CC1(C)CCC(CN2CCN(c3ccc(C(=O)NS(=O)(=O)c4cc(F)c(NCC5CCOCC5)cc4Cl)c(Oc4ccc5[nH]ccc5c4)c3)CC2)=C(c2ccc(Cl)cc2)C1 [Example 379, N-({2-chloro-5-fluoro-4-[(tetrahydro-2H-pyran-4-ylmethyl)amino]phenyl}sulfonyl)-4-(4-{[2-(4-chlorophenyl)-4,4-dimethylcyclohex-1-en-1-yl]methyl}piperazin-1-yl)-2-(1H-indol-5-yloxy)benzamide]	256	> 660	> 500	
COCCOCCSc1ccc(S(=O)(=O)NC(=O)c2ccc(N3CCN(CC4=C(c5ccc(Cl)cc5)CC(C)(C)CC4)CC3)cc2Oc2ccc3[nH]ccc3c2)cc1[N+](=O)[O-] [Example 380, 4-(4-{[2-(4-chlorophenyl)-4,4-dimethylcyclohex-1-en-1-yl]methyl}piperazin-1-yl)-2-(1H-indol-5-yloxy)-N-[(4-{[2-(2-methoxyethoxy)ethyl]thio}-3-nitrophenyl)sulfonyl]benzamide]	0.083	175	68.5	
COCCOCCSc1ccc(S(=O)(=O)NC(=O)c2ccc(N3CCN(CC4=C(c5ccc(Cl)cc5)CC(C)(C)CC4)CC3)cc2Oc2cccc3[nH]ccc23)cc1[N+](=O)[O-] [Example 381, 4-(4-{[2-(4-chlorophenyl)-4,4-dimethylcyclohex-1-en-1-yl]methyl}piperazin-1-yl)-2-(1H-indol-4-yloxy)-N-[(4-{[2-(2-methoxyethoxy)ethyl]thio}-3-nitrophenyl)sulfonyl]benzamide]	0.054	24.2	71.8	
CC1(C)CCC(CN2CCN(c3ccc(C(=O)NS(=O)(=O)c4ccc(S(C)(=O)=O)cc4)c(Oc4ccc5[nH]ccc5c4)c3)CC2)=C(c2ccc(Cl)cc2)C1 [Example 382, 4-(4-{[2-(4-chlorophenyl)-4,4-dimethylcyclohex-1-en-1-yl]methyl}piperazin-1-yl)-2-(1H-indol-5-yloxy)-N-{[4-(methylsulfonyl)phenyl]sulfonyl}benzamide]	1.15	> 660	> 500	
CC1(C)CCC(CN2CCN(c3ccc(C(=O)NS(=O)(=O)c4ccc(S(C)(=O)=O)cc4)c(Oc4cccc5[nH]ccc45)c3)CC2)=C(c2ccc(Cl)cc2)C1 [Example 383, 4-(4-{[2-(4-chlorophenyl)-4,4-dimethylcyclohex-1-en-1-yl]methyl}piperazin-1-yl)-2-(1H-indol-4-yloxy)-N-{[4-(methylsulfonyl)phenyl]sulfonyl}benzamide]	2.17	> 660	> 500	
CC1(C)CCC(CN2CCN(c3ccc(C(=O)NS(=O)(=O)c4ccc(OCC5CCOC(C)(C)C5)c([N+](=O)[O-])c4)c(Oc4ccc5[nH]ccc5c4)c3)CC2)=C(c2ccc(Cl)cc2)C1 (centres unmarked) [Example 384, 4-(4-{[2-(4-chlorophenyl)-4,4-dimethylcyclohex-1-en-1-yl]methyl}piperazin-1-yl)-N-({4-[(2,2-dimethyltetrahydro-2H-pyran-4-yl)methoxy]-3-nitrophenyl}sulfonyl)-2-(1H-indol-5-yloxy)benzamide]	0.076	> 660	101	
CC1(C)CCC(CN2CCN(c3ccc(C(=O)NS(=O)(=O)c4cnc(OCC5(F)CCOCC5)c(C#N)c4)c(Oc4ccc5[nH]ccc5c4)c3)CC2)=C(c2ccc(Cl)cc2)C1 [Example 385, 4-(4-{[2-(4-chlorophenyl)-4,4-dimethylcyclohex-1-en-1-yl]methyl}piperazin-1-yl)-N-({5-cyano-6-[(4-fluorotetrahydro-2H-pyran-4-yl)methoxy]pyridin-3-yl}sulfonyl)-2-(1H-indol-5-yloxy)benzamide]	0.062	130	56.4	
CC1(C)CCC(CN2CCN(c3ccc(C(=O)NS(=O)(=O)c4cnc(OCC5CCOCC5)c(C#N)c4)c(Oc4cccc5[nH]ccc45)c3)CC2)=C(c2ccc(Cl)cc2)C1 [Example 386, 4-(4-{[2-(4-chlorophenyl)-4,4-dimethylcyclohex-1-en-1-yl]methyl}piperazin-1-yl)-N-{[5-cyano-6-(tetrahydro-2H-pyran-4-ylmethoxy)pyridin-3-yl]sulfonyl}-2-(1H-indol-4-yloxy)benzamide]	0.239	118	154	
CC1(C)CCC(CN2CCN(c3ccc(C(=O)NS(=O)(=O)c4cnc(OCC5CCOCC5)c(Cl)c4)c(Oc4cccc5[nH]ccc45)c3)CC2)=C(c2ccc(Cl)cc2)C1 [Example 387, 4-(4-{[2-(4-chlorophenyl)-4,4-dimethylcyclohex-1-en-1-yl]methyl}piperazin-1-yl)-N-{[5-chloro-6-(tetrahydro-2H-pyran-4-ylmethoxy)pyridin-3-yl]sulfonyl}-2-(1H-indol-4-yloxy)benzamide]	0.162	280	86.5	
CC1(C)CCC(CN2CCN(c3ccc(C(=O)NS(=O)(=O)c4cnc(OCCN5CCOCC5)c(C#N)c4)c(Oc4ccc5[nH]ccc5c4)c3)CC2)=C(c2ccc(Cl)cc2)C1 [Example 388, 4-(4-{[2-(4-chlorophenyl)-4,4-dimethylcyclohex-1-en-1-yl]methyl}piperazin-1-yl)-N-{[5-cyano-6-(2-morpholin-4-ylethoxy)pyridin-3-yl]sulfonyl}-2-(1H-indol-5-yloxy)benzamide]	0.188	34.8	82.9	
CC1(C)CCC(CN2CCN(c3ccc(C(=O)NS(=O)(=O)c4ccc(OC5CCN(C6CCOCC6)CC5)c([N+](=O)[O-])c4)c(Oc4ccc5[nH]ccc5c4)c3)CC2)=C(c2ccc(Cl)cc2)C1 [Example 389, 4-(4-{[2-(4-chlorophenyl)-4,4-dimethylcyclohex-1-en-1-yl]methyl}piperazin-1-yl)-2-(1H-indol-5-yloxy)-N-({3-nitro-4-[(1-tetrahydro-2H-pyran-4-ylpiperidin-4-yl)oxy]phenyl}sulfonyl)benzamide]	0.098	67.2	28.1	
CC1(C)CCC(CN2CCN(c3ccc(C(=O)NS(=O)(=O)c4ccc(OCC#CCN5CCOCC5)c([N+](=O)[O-])c4)c(Oc4ccc5[nH]ccc5c4)c3)CC2)=C(c2ccc(Cl)cc2)C1 [Example 390, 4-(4-{[2-(4-chlorophenyl)-4,4-dimethylcyclohex-1-en-1-yl]methyl}piperazin-1-yl)-2-(1H-indol-5-yloxy)-N-({4-[(4-morpholin-4-ylbut-2-ynyl)oxy]-3-nitrophenyl}sulfonyl)benzamide]	0.341	116	41.2	
C#Cc1cc(S(=O)(=O)NC(=O)c2ccc(N3CCN(CC4=C(c5ccc(Cl)cc5)CC(C)(C)CC4)CC3)cc2Oc2cccc3[nH]ccc23)cnc1OCC1CCOCC1 [Example 391, 4-(4-{[2-(4-chlorophenyl)-4,4-dimethylcyclohex-1-en-1-yl]methyl}piperazin-1-yl)-N-{[5-ethynyl-6-(tetrahydro-2H-pyran-4-ylmethoxy)pyridin-3-yl]sulfonyl}-2-(1H-indol-4-yloxy)benzamide]	3.54	> 660	> 500	
CN1CCC(Nc2ccc(S(=O)(=O)NC(=O)c3ccc(N4CCN(CC5=C(c6ccc(Cl)cc6)CC(C)(C)CC5)CC4)cc3Nc3cccnc3)cc2[N+](=O)[O-])CC1 [Example 396, 4-(4-{[2-(4-chlorophenyl)-4,4-dimethylcyclohex-1-en-1-yl]methyl}piperazin-1-yl)-N-({4-[(1-methylpiperidin-4-yl)amino]-3-nitrophenyl}sulfonyl)-2-(pyridin-3-ylamino)benzamide]	116	> 660000	> 500	>5705.9
CC1(C)CCC(CN2CCN(c3ccc(C(=O)NS(=O)(=O)c4ccc(NC5CCN(C6CCOCC6)CC5)c([N+](=O)[O-])c4)c(Oc4cccnc4)c3)CC2)=C(c2ccc(Cl)cc2)C1 [Example 398, 4-(4-{[2-(4-chlorophenyl)-4,4-dimethylcyclohex-1-en-1-yl]methyl}piperazin-1-yl)-N-({3-nitro-4-[(1-tetrahydro-2H-pyran-4-ylpiperidin-4-yl)amino]phenyl}sulfonyl)-2-(pyridin-3-yloxy)benzamide]	1.23	83.4	334	67.7
